One block for each compound: values may come before it. Activity calls are given as the source filed them. No cut-off for these calls is given here. *1 amine or outer side, *2 acyl side, *3 side chain or, on linkers, in order; H or OH if unused. Where a SMILES comes first, the peptide text is derived from it. Bridges are numbered along the chain shown (N, C = ends). Roman numbers before positions name the chains, in order. [ ]: non-standard residue; d: D form. Actinocin(9to1) = Cc1c2oc3c(C)ccc(C(=O)[*:1])c3nc-2c(C(=O)[*:2])c(N)c1=O; NMeV = CN[C@H](C(=O)O)C(C)C; Sar = CNCC(=O)O
Assays:
[1] = biological target: T1, Peroxisomal multifunctional enzyme type 2 (Homo sapiens) (UniProt P51659); experiment: Binding affinity to HSD17B4 in human HL-60 cell lysate by pull down assay; assay type: subcellular
T1 sequence (whole entry): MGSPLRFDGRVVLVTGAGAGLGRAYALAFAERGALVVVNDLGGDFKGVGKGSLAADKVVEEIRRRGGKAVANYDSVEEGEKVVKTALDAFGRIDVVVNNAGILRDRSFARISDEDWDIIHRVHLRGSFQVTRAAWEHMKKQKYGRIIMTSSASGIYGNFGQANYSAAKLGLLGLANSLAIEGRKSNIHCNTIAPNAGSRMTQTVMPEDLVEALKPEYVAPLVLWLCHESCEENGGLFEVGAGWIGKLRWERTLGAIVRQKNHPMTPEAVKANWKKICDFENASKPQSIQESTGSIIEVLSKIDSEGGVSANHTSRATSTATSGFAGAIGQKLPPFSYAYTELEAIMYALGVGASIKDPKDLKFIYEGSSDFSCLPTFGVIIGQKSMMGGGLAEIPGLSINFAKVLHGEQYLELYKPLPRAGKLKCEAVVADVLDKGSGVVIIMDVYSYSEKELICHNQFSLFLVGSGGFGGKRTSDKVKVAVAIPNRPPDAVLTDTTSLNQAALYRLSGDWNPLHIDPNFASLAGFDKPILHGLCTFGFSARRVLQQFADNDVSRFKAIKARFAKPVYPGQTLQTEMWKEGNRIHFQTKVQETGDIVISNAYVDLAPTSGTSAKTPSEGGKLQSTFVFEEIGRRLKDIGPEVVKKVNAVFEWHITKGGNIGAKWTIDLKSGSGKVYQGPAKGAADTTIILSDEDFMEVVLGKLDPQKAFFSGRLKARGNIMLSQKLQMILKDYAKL

[2] = biological target: T1, Peroxisomal multifunctional enzyme type 2 (Homo sapiens); experiment: Binding affinity to HSD17B4 in human HL-60 cell lysate by Western blot analysis; assay type: subcellular
HL-60 [3] = experiment: Cytotoxicity against human HL-60 cells assessed as inhibition of cell viability incubated for 48 hrs by WST-8 assay; assay type: functional, cell-based; conditions: HL-60, 48 h
HL-60 [4] = experiment: Downregulation of IL-6-induced STAT3 phosphorylation in human HL-60 cells pretreated for 24 hrs followed by IL-6 stimulation by Western blot analysis; assay type: functional, cell-based
HL-60 [5] = experiment: Induction of apoptosis in human HL-60 cells assessed as DNA fragmentation at 1 uM treated for 24 hrs by agarose gel electrophoresis; assay type: functional, cell-based
HL-60 [6] = experiment: Induction of apoptosis in Z-VAD-fmk-treated human HL-60 cells assessed as DNA fragmentation at 1 uM treated for 24 hrs by agarose gel electrophoresis; assay type: functional, cell-based
MRC5 = experiment: Cytotoxicity against human MRC5 cells assessed as inhibition of cell viability incubated for 24 hrs by MTT assay; assay type: functional, cell-based; conditions: MRC5, 24 h
[7] = Inhibition of calf DNA polymerase alpha using DNA as substrate incubated for 60 mins in presence of […]; design: species or system Bos taurus
HL-60 [8] = experiment: Induction of apoptosis in human HL-60 cells assessed as DNA fragmentation at 5 uM treated for 24 hrs by agarose gel electrophoresis; assay type: functional, cell-based
HL-60 [9] = experiment: Induction of apoptosis in Z-VAD-fmk-treated human HL-60 cells assessed as inhibition of caspase-3 activation at 5 uM treated for 24 hrs by Ac-DEVD-MCA substrate based analysis; assay type: functional, cell-based
HL-60 [10] = experiment: Induction of apoptosis in Z-VAD-fmk-treated human HL-60 cells assessed as DNA fragmentation at 5 uM treated for 24 hrs by agarose gel electrophoresis; assay type: functional, cell-based
DNA polymerase beta = DNA polymerase beta (Rattus norvegicus, UniProt P06766); experiment: Inhibition of rat DNA polymerase beta using DNA as substrate incubated for 60 mins in presence of […]
HeLa = experiment: Cytotoxicity against human HeLa cells assessed as inhibition of cell viability incubated for 24 hrs by MTT assay; assay type: functional, cell-based
MC3T3-E1 = experiment: Cytotoxicity against mouse MC3T3-E1 cells assessed as inhibition of cell viability incubated for 24 hrs by MTT assay; assay type: functional, cell-based; conditions: MC3T3-E1, 24 h
HL-60 [11] = experiment: Cytotoxicity against human HL-60 cells assessed as inhibition of cell viability incubated for 24 hrs by MTT assay; assay type: functional, cell-based; conditions: HL-60, 24 h

SMILES: CO/C=C(/C(=O)OC)c1ccccc1COc1cc(C(F)(F)F)nc(OC(C)C)n1
Activity (HL-60 [4]): Dose-Dependent Effect

SMILES: Cc1c2oc3c(C)ccc(C(=O)N[C@@H]4C(=O)N[C@H](C(C)C)C(=O)N5CCC[C@H]5C(=O)N(C)CC(=O)N(C)[C@@H](C(C)C)C(=O)O[C@@H]4C)c3nc-2c(C(=O)N[C@@H]2C(=O)N[C@H](C(C)C)C(=O)N3CCC[C@H]3C(=O)N(C)CC(=O)N(C)[C@@H](C(C)C)C(=O)O[C@@H]2C)c(N)c1=O (I: T[dV]P[Sar][NMeV] / II: T[dV]P[Sar][NMeV]; ester I:1-I:C, II:1-II:C; linker I:N-II:N via Actinocin(9to1))
Activity (HL-60 [5]): Active | Activity (HL-60 [6]): inactive

SMILES: CCCCCCCCCCCCCCCC[C@]1(O)C=C[C@H](O)[C@H]1C(=O)OC [PLAKEVULIN A]
IC50 (MRC5): > 15 µM | IC50 [7]: 137 µM | Activity (HL-60 [8]): Active | inhibition (HL-60 [9]): Active | Activity (HL-60 [4]): Dose-Dependent Effect | Activity (HL-60 [10]): inactive | IC50 (DNA polymerase beta): 189 µM | IC50 (HeLa): 11.5 µM | IC50 (MC3T3-E1): 12.4 µM | IC50 (HL-60 [3]): 2.63 µM | IC50 (HL-60 [11]): 2.02 µM

Continued, in another order:

Activity [1]: inactive
SMILES: O=C(O)CCCCCNC(=O)CCCC[C@@H]1SC[C@@H]2NC(=O)N[C@@H]21

Activity [2]: Active | Activity [1]: Active
SMILES: CCCCCCCCCCCCCCCC[C@]1(O)C=C[C@H](OC(=O)CCCCCNC(=O)CCCC[C@@H]2SC[C@@H]3NC(=O)N[C@@H]32)[C@H]1C(=O)OC
IC50 (HL-60 [3]): 5.76 µM
